Counter-ions that a name gives are not always drawn.
How the values were obtained:
[1] = test system: Trypanosoma brucei rhodesiense (STIB900); assay: In vitro growth inhibition assay of T. brucei rhodesiense; format: cell-based
[2] = test system: Plasmodium falciparum (K1, resistant to chloroquine); assay: In vitro growth inhibition assay of P. falciparum; format: cell-based; conditions: for IC50: Plasmodium falciparum, K1, read-out: antiplasmodial IC50, P. falciparum, in vitro
[3] = relative to bis(N-isopropyl)amidine 32

With `COc1ccc(C(=N)N)cc1-n1cc(-c2cccc(C(=N)N)c2)nn1.Cl.Cl` [Compound 4, 1-(5-Amidino-2-methoxyphenyl)-4-(3-amidinophenyl)-1H-1,2,3-triazole Dihydrochloride] the “fold as active against T. brucei rhodesiense” value ([1]; relative to 2-O-demethylated analogue 10) was 1000 fold and the IC50 [2] was less than 58 nM.
With `CC(C)NC(=N)c1ccc(-n2cc(-c3cccc(C(=N)NC(C)C)c3)nn2)cc1.Cl.Cl` [Compound 17, 1-(4-N-Isopropylamidinophenyl)-4-(3-N-isopropylamidinophenyl)-1H-1,2,3-triazole Dihydrochloride] the “fold less active against T. brucei rhodesiense” value ([1]; relative to diamidine 16) was 67 fold and the IC50 [2] was less than 58 nM.
`COc1ccc(C(=N)N)cc1-n1cc(-c2ccc(C(=N)N)cc2)nn1.Cl.Cl` [Compound 34, 1-(5-Amidino-2-methoxyphenyl)-4-(4-amidinophenyl)-1H-1,2,3-triazole Dihydrochloride] was tested, and the IC50 [2] was less than 58 nM and the “fold less active against P. falciparum” value ([2]; relative to congener 31) was 4 fold.
For `COc1ccc(C2=NCCN2)cc1-n1cc(-c2ccc(C3=NCCN3)cc2)nn1` [Compound 36, 1-[5-(4,5-Dihydro-1H-imidazol-2-yl)-2-methoxyphenyl]-4-[4-(4,5-dihydro-1H-imidazol-2-yl)phenyl]-1H-1,2,3-triazole Dihydrochloride], the IC50 [2] was less than 58 nM.
`Cl.Cl.c1cc(C2=NCCN2)cc(-c2cn(-c3cccc(C4=NCCN4)c3)nn2)c1` [Compound 3, 1,4-Bis[3-(4,5-dihydro-1H-imidazol-2-yl)phenyl]-1H-1,2,3-triazole Dihydrochloride] was tested, and the “fold less active against T. brucei rhodesiense” value ([1]; relative to diamidine 1) was roughly 170 fold.
In the case of `Cl.Cl.Oc1ccc(C2=NCCN2)cc1-c1cn(-c2cccc(C3=NCCN3)c2)nn1` [Compound 15, 4-[5-(4,5-Dihydro-1H-imidazol-2-yl)-2-hydroxyphenyl]-1-[3-(4,5-dihydro-1H-imidazol-2-yl)phenyl]-1H-1,2,3-triazole Dihydrochloride], the IC50 [2] is reported as less than 58 nM and the “fold more active against P. falciparum” value ([2]; relative to diimidazoline 3) is reported as 7 fold.
`Oc1cc(C2=NCCN2)ccc1-n1cc(-c2ccc(C3=NCCN3)cc2)nn1` [Compound 57, 1-[4-(4,5-Dihydro-1H-imidazol-2-yl)-2-hydroxyphenyl]-4-[4-(4,5-dihydro-1H-imidazol-2-yl)phenyl]-1H-1,2,3-triazole Dihydrochloride] gave an IC50 [2] of less than 58 nM.
`Cl.Cl.c1cc(C2=NCCN2)cc(-c2cn(-c3ccc(C4=NCCN4)cc3)nn2)c1` [Compound 18, 1-[4-(4,5-Dihydro-1H-imidazol-2-yl)phenyl]-4-(3-(4,5-dihydro-1H-imidazol-2-yl)phenyl)-1H-1,2,3-triazole Dihydrochloride] was tested, and the “fold less active against T. brucei rhodesiense” value ([1]; relative to diamidine 16) was 25 fold.
For `CC(C)NC(=N)c1ccc(-c2cn(-c3cccc(C(=N)NC(C)C)c3)nn2)cc1.Cl.Cl` [Compound 32, 1-(3-N-Isopropylamidinophenyl)-4-(4-N-isopropylamidinophenyl)-1H-1,2,3-triazole Dihydrochloride], the “fold less active against T. brucei rhodesiense” value ([1]; relative to diamidine 31) was 77 fold and the IC50 [2] was less than 58 nM.
`CC(C)NC(=N)c1cccc(-c2cn(-c3cccc(C(=N)NC(C)C)c3)nn2)c1.Cl.Cl` [Compound 2, 1,4-Bis(3-N-isopropylamidinophenyl)-1H-1,2,3-triazole Dihydrochloride] was tested, and the “fold less active against T. brucei rhodesiense” value ([1]; relative to diamidine 1) was roughly 170 fold.
For `CC(C)NC(=N)c1ccc(-n2cc(-c3cc(C(=N)NC(C)C)ccc3O)nn2)cc1` [Compound 29, 4-(5-N-Isopropylamidino-2-hydroxyphenyl)-1-(4-N-isopropylamidinophenyl)-1H-1,2,3-triazole Dihydrochloride], the IC50 [2] was less than 58 nM.
`CC(C)NC(=N)c1ccc(-c2cn(-c3cc(C(=N)NC(C)C)ccc3O)nn2)cc1.Cl.Cl` [Compound 41, 1-(5-N-Isopropylamidino-2-hydroxyphenyl)-4-(4-N-isopropylamidinophenyl)-1H-1,2,3-triazole Dihydrochloride] was tested, and the “fold less active against T. brucei rhodesiense” value [1, 3] was 33 fold and the “fold less active against P. falciparum” value [2, 3] was 123 fold.
In the case of `COc1ccc(C(=N)NC(C)C)cc1-n1cc(-c2ccc(C(=N)NC(C)C)cc2)nn1.Cl.Cl` [Compound 35, 1-(5-N-Isopropylamidino-2-methoxyphenyl)-4-(4-N-isopropylamidinophenyl)-1H-1,2,3-triazole Dihydrochloride], the “fold less active against P. falciparum” value [2, 3] is reported as 5 fold.
For `Cl.Cl.Oc1ccc(C2=NCCN2)cc1-n1cc(-c2cccc(C3=NCCN3)c2)nn1` [Compound 12, 1-[5-(4,5-Dihydro-1H-imidazol-2-yl)-2-hydroxyphenyl]-4-[3-(4,5-dihydro-1H-imidazol-2-yl)phenyl]-1H-1,2,3-triazole Dihydrochloride], the “fold less active against T. brucei rhodesiense” value ([1]; relative to diimidazoline 3) was 7 fold.
Compound `Oc1cc(C2=NCCN2)ccc1-c1cn(-c2cccc(C3=NCCN3)c2)nn1` [Compound 45, 4-[4-(4,5-Dihydro-1H-imidazol-2-yl)-2-hydroxyphenyl]-1-[3-(4,5-dihydro-1H-imidazol-2-yl)phenyl]-1H-1,2,3-triazole Dihydrochloride] has an IC50 [2] of less than 58 nM.
In the case of `Cl.Cl.c1cc(C2=NCCN2)cc(-n2cc(-c3ccc(C4=NCCN4)cc3)nn2)c1` [Compound 33, 1-[3-(4,5-Dihydro-1H-imidazol-2-yl)phenyl]-4-[4-(4,5-dihydro-1H-imidazol-2-yl)phenyl]-1H-1,2,3-triazole Dihydrochloride], the “fold less active against T. brucei rhodesiense” value ([1]; relative to diamidine 31) is reported as 77 fold.
For `COc1cc(C2=NCCN2)ccc1-n1cc(-c2cccc(C3=NCCN3)c2)nn1.Cl.Cl` [Compound 21, 1-[4-(4,5-Dihydro-1H-imidazol-2-yl)-2-methoxyphenyl]-4-[3-(4,5-dihydro-1H-imidazol-2-yl)phenyl]-1H-1,2,3-triazole Dihydrochloride], the “fold less active against T. brucei rhodesiense” value ([1]; relative to congener 19) was 170 fold.
`Cl.Cl.N=C(N)c1ccc(-c2cn(-c3ccc(C(=N)N)cc3O)nn2)cc1` [Compound 55, 1-(4-Amidino-2-hydroxyphenyl)-4-(4-amidinophenyl)-1H-1,2,3-triazole Dihydrochloride] was tested, and the “fold less active against T. brucei rhodesiense” value ([1]; relative to dication 46) was 125 fold.
In the case of `COc1cc(C(=N)NC(C)C)ccc1-c1cn(-c2ccc(C(=N)NC(C)C)cc2)nn1` [Compound 53, 4-(4-N-Isopropylamidino-2-methoxyphenyl)-1-(4-N-isopropylamidinophenyl)-1H-1,2,3-triazole Dihydrochloride], the IC50 [2] is reported as less than 58 nM.
`CC(C)NC(=N)c1ccc(-n2cc(-c3ccc(C(=N)NC(C)C)cc3O)nn2)cc1.Cl.Cl` [Compound 59, 4-(4-N-Isopropylamidino-2-hydroxyphenyl)-1-(4-N-isopropylamidinophenyl)-1H-1,2,3-triazole Dihydrochloride] gave an IC50 [2] of less than 58 nM.
`COc1ccc(C2=NCCN2)cc1-c1cn(-c2ccc(C3=NCCN3)cc2)nn1` [Compound 24, 4-[5-(4,5-Dihydro-1H-imidazol-2-yl)-2-methoxyphenyl]-1-[4-(4,5-dihydro-1H-imidazol-2-yl)phenyl]-1H-1,2,3-triazole Dihydrochloride] gave an IC50 [2] of less than 58 nM.
In the case of `COc1cc(C2=NCCN2)ccc1-c1cn(-c2cccc(C3=NCCN3)c2)nn1.Cl.Cl` [Compound 39, 4-[4-(4,5-Dihydro-1H-imidazol-2-yl)-2-methoxyphenyl]-1-[3-(4,5-dihydro-1H-imidazol-2-yl)phenyl]-1H-1,2,3-triazole Dihydrochloride], the “fold less active against T. brucei rhodesiense” value ([1]; relative to diamidine 37) is reported as 804 fold.
In the case of `CC(C)NC(=N)c1cccc(-c2cn(-c3cc(C(=N)NC(C)C)ccc3O)nn2)c1.Cl.Cl` [Compound 11, 1-(5-N-Isopropylamidino-2-hydroxyphenyl)-4-(3-N-isopropylamidinophenyl)-1H-1,2,3-triazole Dihydrochloride], the “fold lower antiplasmodial activity” value ([2]; relative to congener 2) is reported as 7 fold and the “fold lower antiplasmodial activity” value ([2]; relative to congener 5) is reported as 6 fold.
For `Cl.Cl.N=C(N)c1cccc(-c2cn(-c3ccc(C(=N)N)cc3O)nn2)c1` [Compound 25, 1-(4-Amidino-2-hydroxyphenyl)-4-(3-amidinophenyl)-1H-1,2,3-triazole Dihydrochloride], the “fold less active against T. brucei rhodesiense” value ([1]; relative to diamidine 16) was roughly 22 fold.
In the case of `COc1cc(C(=N)NC(C)C)ccc1-n1cc(-c2ccc(C(=N)NC(C)C)cc2)nn1` [Compound 50, 1-(4-N-Isopropylamidino-2-methoxyphenyl)-4-(4-N-isopropylamidinophenyl)-1H-1,2,3-triazole Dihydrochloride], the IC50 [2] is reported as less than 58 nM.
`COc1cc(C2=NCCN2)ccc1-n1cc(-c2ccc(C3=NCCN3)cc2)nn1` [Compound 51, 1-[4-(4,5-Dihydro-1H-imidazol-2-yl)-2-methoxyphenyl]-4-[4-(4,5-dihydro-1H-imidazol-2-yl)phenyl]-1H-1,2,3-triazole Dihydrochloride] gave an IC50 [2] of less than 58 nM.
In the case of `COc1cc(C2=NCCN2)ccc1-c1cn(-c2ccc(C3=NCCN3)cc2)nn1` [Compound 54, 4-[4-(4,5-Dihydro-1H-imidazol-2-yl)-2-methoxyphenyl]-1-[4-(4,5-dihydro-1H-imidazol-2-yl)phenyl]-1H-1,2,3-triazole Dihydrochloride], the IC50 [2] is reported as less than 58 nM.
With `Cl.Cl.Oc1ccc(C2=NCCN2)cc1-n1cc(-c2ccc(C3=NCCN3)cc2)nn1` [Compound 42, 1-[5-(4,5-Dihydro-1H-imidazol-2-yl)-2-hydroxyphenyl]-4-[4-(4,5-dihydro-1H-imidazol-2-yl)phenyl]-1H-1,2,3-triazole Dihydrochloride] the “fold less active against T. brucei rhodesiense” value ([1]; relative to diimidazoline 33) was 43 fold.
In the case of `COc1cc(C(=N)N)ccc1-n1cc(-c2ccc(C(=N)N)cc2)nn1` [Compound 49, 1-(4-Amidino-2-methoxyphenyl)-4-(4-amidinophenyl)-1H-1,2,3-triazole Dihydrochloride], the IC50 [2] is reported as less than 58 nM.
For `Cl.Cl.N=C(N)c1ccc(-c2cn(-c3cc(C(=N)N)ccc3O)nn2)cc1` [Compound 40, 1-(5-Amidino-2-hydroxyphenyl)-4-(4-amidinophenyl)-1H-1,2,3-triazole Dihydrochloride], the “fold less active against P. falciparum” value ([2]; relative to congener 31) was 308 fold.
`c1cc(-c2cn(-c3ccc(C4=NCCN4)cc3)nn2)ccc1C1=NCCN1` [Compound 48, 1,4-Bis(4-(4,5-dihydro-1H-imidazol-2-yl)phenyl)-1H-1,2,3-triazole Dihydrochloride] was tested, and the IC50 [2] was less than 58 nM.
With `CC(C)NC(=N)c1cccc(-n2cc(-c3ccc(C(=N)NC(C)C)cc3O)nn2)c1` [Compound 44, 4-(4-N-Isopropylamidino-2-hydroxyphenyl)-1-(3-N-isopropylamidinophenyl)-1H-1,2,3-triazole Dihydrochloride] the IC50 [2] was less than 58 nM.
